Legend:
[1] = Cytotoxicity against HepG2; assay type: cell-based; details: human, HepG2 cells (ATCC HB-8065), 5 days exposure
Description: Cytotoxicity against HepG2 (ATCC# HB-8065), a human liver cancer cell line, was determined as previously described earlier (Manjunatha et al., 2015). Briefly, cells were seeded at a density of 10^5 cells per well, incubated at 37° C. for 24 h and exposed to two-fold serially-diluted compounds for 5 days. Cell viability was monitored using the Cell Proliferation Kit II (Invitrogen). The cytotoxicity values of selected compounds are reported in the fifth column [HepG2 CC50 (μM)] of Table II.

Cryptosporidium parvum = assay: Cytopathic effect (CPE) based assay, C. parvum infected HCT-8 cells; details: HCT-8 host cell viability (CellTiter-Glo), 48 hours treatment, read-out: Cp CPE EC50
Description: Human ileocecal colorectal adenocarcinoma cells (HCT-8 [HRT-18] ATCC, CCL-34) were maintained in T-175 flasks (Corning, 431080) in complete growth medium (RPMI-1640 medium (Gibco, 11875) supplemented with 10% heat-inactivated horse serum (Gibco, 26050), 1×MEM non-essential amino acids (Gibco, 11140), 10 mM HEPES (Gibco, 15630), 100 units/mL penicillin, and 100 units/mL streptomycin) at 37° C. and 5% CO2 in a humidified incubator. Cultures were passaged twice weekly using 10 mL of 1×Phosphate-Buffered Saline (PBS) without Ca^2+ and Mg^2+ (Gibco, 20012) for washing and 3-5 mL per T-175 flask of TrypLE Express Enzyme (Gibco, 12604) for dissociation of adherent cells.
Cryptosporidium parvum oocysts purchased from the Sterling Laboratory, University of Arizona (Iowa isolate) were purified from infected calf feces using discontinuous sucrose and cesium chloride centrifugation gradients and stored in PBS solution containing 0.01% Tween 20, 100 units/mL penicillin and 100 units/mL gentamicin.
Excystation and infection protocols were developed following established methods with some modifications (Gut & Nelson, 1999, Upton et aL, 1995, Bessoff et aL, 2013). Briefly, oocysts were primed in 1 mL of 10 mM hydrochloric acid in 1× Hank's Balanced Salt Solution (HBSS) (Gibco, 14025) for 10 minutes with agitation at 1000 rpm, 37° C. on an Eppendorf thermomixer, then washed twice with 1 mL of room temperature non-acidic 1× HBSS by centrifugation at 13,000 rpm for 3 minutes at 25° C. Primed oocysts were further excysted at a concentration of 1×10^6 oocysts/μL in parasite infection medium consisting of a pre-warmed and pre-gassed 1:1 formulation of Leibovitz's L-15 medium (Gibco, 11415) and UltraCULTURE medium (Lonza, 12-725F) supplemented with 2 mM sodium taurocholate (Sigma, 86339-1), 10% heat-inactivated horse serum, and 200 μM L-ascorbic acid (Sigma, 95210) at 25° C. for 10 minutes. HCT-8 monolayer cells were infected with excysted cryptosporidium at a specified multiplicity of infection (MOI). All dilutions for subsequent assays were performed in parasite infection medium without sodium taurocholate. Pre-excysted oocysts were enumerated microscopically using a C-Chip disposable hemocytometer (NanoEnTek, DHC-N01).
Compound powders were dissolved in neat DMSO (Fisher, D4121) to 10 mM and stored at 4° C. prior to dilution into source plates. Dilutions were carried out using a Microlab STAR liquid handler (Hamilton) to obtain compound source plates containing the ten-point or eight-point three fold dilutions starting from 10 mM in duplicates. Source plates were stored at 4° C. prior to spotting into assay plates. Before administration, all compound source plates were equilibrated to room temperature. A specified volume of compounds from source plate were spotted to assay plate using an Echo Acoustic liquid handler (LABCYTE, 550) so that the final DMSO concentration was less than 0.5%. Each assay plate a specified number of DMSO-treated negative control wells and a well-studied potent active compound at 100 nM as positive control. As a quality control, all positive and negative-control wells were used to calculate a Z′-value and signal to noise ratio (S:N) for each plate.
Cryptosporidium spp are obligate-intracellular parasites that infect intestinal epithelial cells and the host cell is killed upon parasite egress. […] The loss of epithelial cells is due to both rapid parasite invasion/multiplication/egress and also pro-inflammatory immune response (Adams et al., 1994, Griffiths et al., 1994). We have observed a consistent cytopathic effect (CPE) in HCT-8 cells with C. spp infection the loss of viability of the host cells using CellTiter-Glo reagent.
Confluent HCT-8 cells in T-175 flasks were directly infected with excysted oocysts at an MOI (host to parasite) of 1:2 for C. parvum and 1:4 for C. hominis. The number of host-cells is determined using a NucleoCounter (Chemometec, NC-100) in a control flask. […]

| Structure (SMILES) | CC50 at 5 days [1] | EC50 (Cryptosporidium parvum) |
| --- | --- | --- |
| CNC(=O)c1ccc(-c2cnn3ccc(C(=O)N(c4ccc(C(N)=O)cn4)C4CC4)cc23)cc1 [Example 129] | > 50 µM | > 20 µM |
| CNC(=O)c1ccc(-c2cnn3ccc(S(=O)(=O)N(C)c4ccc(C#N)cn4)cc23)cc1 [Example 163] | 8.48 µM | 0.197 µM |
| CN(C(=O)c1ccn2ncc(-c3cnc(Cl)c(N)c3)c2c1)c1ccc(C#N)cn1 [Example 98] | 10.2 µM | 2.21 µM |
| N#Cc1ccc(N(C(=O)c2ccn3ncc(-c4ccc(C(N)=O)cc4)c3c2)C2CC2)cc1 [Example 134] | 7.24 µM | 0.042 µM |
| CN(C(=O)c1ccn2ncc(-c3ccc(C(=O)O)cc3)c2c1)c1ccc(C#N)cn1 [Example 101] | > 50 µM | 15.2 µM |
| CNC(=O)c1ccc(-c2cnn3ccc(C(=O)N(c4ccc(C#N)cc4)C(C)C)cc23)cn1 [Example 146] | 32.1 µM | 0.329 µM |
| CN(C(=O)c1ccn2ncc(-c3ccc(C(=O)NCCN)cc3)c2c1)c1ccc(C#N)cn1 [Example 104] | > 50 µM | 3.61 µM |
| CNC(=O)c1ccc(-c2cnn3ccc(C(=O)N(c4ccc(F)c(F)c4)C4CC4)cc23)cc1 [Example 130] | > 50 µM | 0.235 µM |
| CCN(C(=O)c1ccn2ncc(-c3ccc(S(C)(=O)=O)cc3)c2c1)c1ccc(C#N)cn1 [Example 158] | 23 µM | 3.75 µM |
| CNC(=O)c1ccc(-c2cnn3ccc(C(=O)N(c4ccc(C(F)(F)F)cn4)C4CC4)cc23)cc1 [Example 132] | 17.3 µM | 0.089 µM |
| CNC(=O)c1ccc(-c2cnn3ccc(C(=O)N(c4ccc(C#N)cn4)C(C)C)cc23)cn1 [Example 148] | 20.1 µM | 1.86 µM |
| CN(C(=O)c1ccn2ncc(-c3ccc4c(cnn4C)c3)c2c1)c1ccc(C#N)cc1 [Example 17] | 2.51 µM | 0.058 µM |
| CNC(=O)c1ccc(-c2cnn3ccc(C(=O)N(c4ccc(C#N)cn4)C4CC4)cc23)nc1 [Example 133] | 20.9 µM | 2.18 µM |
| N#Cc1ccc(N(CCO)C(=O)c2ccn3ncc(-c4ccc(C(N)=O)cc4)c3c2)cc1 [Example 105] | > 50 µM | > 20 µM |
| CNC(=O)c1ccc(-c2cnn3ccc(C(=O)N(C)c4ccc(C#N)cn4)cc23)cc1 [Example 75] | 19.7 µM | 0.066 µM |
| CNC(=O)c1ccc(-c2cnn3ccc(C(=O)N(c4ccc(Cl)cc4)C4CC4)cc23)cn1 [Example 143] | 17.5 µM | 0.079 µM |
| CC1COc2cc(F)ccc2N1C(=O)c1ccn2ncc(-c3ccc(C(N)=O)cc3)c2c1 (stereo not shown) [Example 72] | 5.42 µM | 1.4 µM |
| CNC(=O)c1ccc(-c2cnn3ccc(C(=O)N(C)c4ccc(OCCN)cn4)cc23)cc1 [Example 111] | > 50 µM | > 20 µM |
| NC(=O)c1ccc(-c2cnn3ccc(C(=O)N(c4ccc(F)c(F)c4)C4CC4)cc23)cc1 [Example 135] | 31.1 µM | 0.279 µM |
| CN(C(=O)c1ccn2ncc(-c3ccc(C(=O)NC4CCNCC4)cc3)c2c1)c1ccc(C#N)cn1 [Example 113] | 2.67 µM | 19.4 µM |
| CN(C(=O)c1ccc(C#N)cc1)c1ccn2ncc(-c3ccc(C(F)(F)F)cc3)c2c1 [Example 28] | 9.9 µM | 2.82 µM |

| Structure (SMILES) | CC50 at 5 days [1] | EC50 (Cryptosporidium parvum) |
| --- | --- | --- |
| CN(C)CCNC(=O)c1ccc(-c2cnn3ccc(C(=O)N(C)c4ccc(C#N)cn4)cc23)cc1 [Example 115] | 2.7 µM | 3.02 µM |
| CNC(=O)c1ccc(-c2cnn3ccc(C(=O)Nc4ccc(C#N)cn4)cc23)cc1 [Example 106] | > 50 µM | > 20 µM |
| CNC(=O)c1ccc(-c2cnn3ccc(C(=O)N(C)c4ccc(F)cc4)cc23)cc1 [Example 64] | 4.84 µM | 0.143 µM |
| CN(C(=O)c1ccn2ncc(-c3ccc(C(N)=O)cc3)c2c1)c1ccc(F)cc1 [Example 20] | 5.42 µM | 0.105 µM |
| CN(C)C(=O)c1cc(-c2cnn3ccc(C(=O)N(C)c4ccc(C#N)cn4)cc23)cnc1N [Example 87] | > 50 µM | 0.415 µM |
| N#Cc1ccc(N(C(=O)c2ccn3ncc(-c4ccc(C(N)=O)nc4)c3c2)C2CC2)cc1 [Example 138] | 8.1 µM | 0.49 µM |
| CNC(=O)c1ccc(-c2cnn3ccc(C(=O)N(c4ccc(F)cn4)C(C)C)cc23)cc1 [Example 151] | 29.2 µM | 2.31 µM |
| CNC(=O)c1ccc(-c2cnn3ccc(C(=O)N(C)c4ccc(Cl)cc4)cc23)cn1 [Example 109] | 16.9 µM | 0.129 µM |
| N#Cc1ccc(N(C(=O)c2ccn3ncc(-c4ccc(C(N)=O)cn4)c3c2)C2CC2)cc1 [Example 142] | 18.3 µM | 0.379 µM |
| CNC(=O)c1ccc(-c2cnn3ccc(C(=O)N(c4ccc(F)cn4)C(C)C)cc23)cn1 [Example 156] | > 50 µM | 15.6 µM |
| CCN(C(=O)c1ccn2ncc(-c3ccc(C(=O)NC)nc3)c2c1)c1ccc(C(F)(F)F)cn1 [Example 157] | 8.96 µM | 0.295 µM |
| N#Cc1ccc(N(C(=O)c2ccn3ncc(-c4ccc(C(N)=O)cn4)c3c2)C2CC2)nc1 [Example 139] | 16.7 µM | 2.07 µM |
| CN(C(=O)c1ccn2ncc(-c3cnc(N)nc3)c2c1)c1ccc(C#N)cc1 [Example 83] | > 50 µM | 0.487 µM |
| CN(C(=O)c1ccn2ncc(-c3ccc(C(N)=O)cc3)c2c1)c1ccc(Cl)cc1 [Example 100] | 13.3 µM | 0.021 µM |
| CCN(C(=O)c1ccn2ncc(-c3ccc(C(=O)NC)cc3)c2c1)c1ccc(F)cn1 [Example 95] | 13 µM | 0.63 µM |
| CN(C(=O)c1ccn2ncc(-c3ccc(N)nc3)c2c1)c1ccc(C#N)cc1 [Example 41] | 24.1 µM | 0.097 µM |
| CNC(=O)c1ccc(-c2cnn3ccc(C(=O)N(c4ccc(C#N)cc4)C4CCC4)cc23)cn1 [Example 145] | 16.8 µM | 0.417 µM |
| CNC(=O)c1ccc(-c2cnn3ccc(C(=O)N(c4ccc(C#N)cn4)C4CCC4)cc23)nc1 [Example 155] | > 50 µM | 1.01 µM |
| CNC(=O)c1ccc(-c2cnn3ccc(C(=O)N(c4ccc(C#N)cc4)C4CC4)cc23)cn1 [Example 137] | 2.19 µM | 0.35 µM |
| CN(C(=O)c1ccn2ncc(-c3ccnc(N)c3)c2c1)c1ccc(C#N)cn1 [Example 108] | 14.2 µM | 4.94 µM |

— US20190030009A1, “COMPOUNDS AND COMPOSITIONS FOR THE TREATMENT OF CRYPTOSPORIDIOSIS” (Novartis AG, priority 2016, published 2019)
